Source: US7276603B2, “Benzofuranyl-and benzothienyl-piperazinyl quinolines and methods of their use” (Wyeth, priority 2003, dated 2007)

Tests used:
[1] = target: T1, human 5-HT1A receptors (Homo sapiens, UniProt P08908); test: displacement of [3H] 8-OH-DPAT from the 5-HT1A serotonin receptor; assay type: binding; conditions: CHO cells stably transfected with human 5-HT1A receptors
T1 construct: expressed in transfected cells; host or cells: CHO cells
T1 sequence (P08908 1-422): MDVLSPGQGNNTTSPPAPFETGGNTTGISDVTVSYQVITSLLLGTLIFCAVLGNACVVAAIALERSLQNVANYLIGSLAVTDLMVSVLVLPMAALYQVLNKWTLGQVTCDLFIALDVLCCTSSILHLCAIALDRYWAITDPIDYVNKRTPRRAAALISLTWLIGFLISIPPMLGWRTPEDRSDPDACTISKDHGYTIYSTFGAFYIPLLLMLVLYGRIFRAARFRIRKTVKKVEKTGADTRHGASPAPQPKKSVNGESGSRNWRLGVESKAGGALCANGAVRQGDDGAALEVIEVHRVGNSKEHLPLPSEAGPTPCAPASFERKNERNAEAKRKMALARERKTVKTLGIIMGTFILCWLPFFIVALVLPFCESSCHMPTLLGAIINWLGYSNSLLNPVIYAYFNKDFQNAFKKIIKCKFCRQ

[2] = target: 5-HT transporter (Rattus norvegicus, UniProt P31652); test: Rat Brain 3H-Paroxetine Binding Assay (RB 5HT Transporter); conditions: rat frontal cortical membranes; 3H-paroxetine 0.1 nM, 60 min, 25° C.
5-HT transporter, sequence (P31652 whole entry): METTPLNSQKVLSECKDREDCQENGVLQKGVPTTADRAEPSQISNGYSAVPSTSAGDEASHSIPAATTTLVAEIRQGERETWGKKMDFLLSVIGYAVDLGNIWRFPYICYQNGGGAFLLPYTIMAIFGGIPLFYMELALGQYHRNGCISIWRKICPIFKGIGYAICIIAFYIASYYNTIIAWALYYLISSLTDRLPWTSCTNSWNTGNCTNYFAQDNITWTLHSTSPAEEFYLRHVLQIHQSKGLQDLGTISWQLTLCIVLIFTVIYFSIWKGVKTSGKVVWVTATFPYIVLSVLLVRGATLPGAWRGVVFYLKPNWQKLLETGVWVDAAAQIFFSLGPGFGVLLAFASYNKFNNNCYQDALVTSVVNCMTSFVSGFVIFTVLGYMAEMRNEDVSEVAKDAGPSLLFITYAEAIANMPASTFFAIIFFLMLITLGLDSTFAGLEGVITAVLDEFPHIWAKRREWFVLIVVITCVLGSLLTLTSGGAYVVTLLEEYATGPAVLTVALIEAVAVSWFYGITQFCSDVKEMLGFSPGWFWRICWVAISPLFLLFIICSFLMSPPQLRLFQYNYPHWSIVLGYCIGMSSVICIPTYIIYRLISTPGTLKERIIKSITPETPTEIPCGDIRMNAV
Text: Rat Brain ^3H-Paroxetine Binding Assay (RB 5HT Transporter):
This assay was used to determine a compound's affinity of the 5-HT transporter.
All reactions were terminated by the addition of ice cold Tris buffer followed by rapid filtration using a Tom Tech filtration device to separate bound from free ^3H-paroxetine.

Row | SMILES | Ki [1] [nM] | Ki [2] [nM]
1 | COc1cc(N2CCN(CCc3coc4ccccc34)CC2)c2ncccc2c1 [Compound 4, 8-{4-[2-(1-benzofuran-3-yl)ethyl]-1-piperazinyl}-6-methoxyquinoline] | 2.48 | 60
2 | COc1cccc2c1occ2[C@H]1CC[C@@H](N2CCN(c3ccc(Cl)c4cccnc34)CC2)CC1 [Compound 63, 5-chloro-8-{4-[4-cis(7-methoxy-1-benzofuran-3-yl)cyclohexyl]piperazin-1-yl}quinoline] | 0.92 | 87
3 | COc1cccc2c(C(C)CN3CCN(c4cc(C)cc5cccnc45)CC3)coc12 (stereo not drawn) [Compound 32, 8-{4-[2-(7-methoxy-1-benzofuran-3-yl)propyl]-1-piperazinyl}-6-methyl-quinoline] | 2.16 | 35
4 | Fc1cc(N2CCN([C@H]3CC[C@@H](c4coc5ccccc54)CC3)CC2)c2ncccc2c1 [Compound 55, 8-{4-[4-cis(1-benzofuran-3-yl)cyclohexyl]-1-piperazinyl}-6-fluoroquinoline] | 0.11 | 116
5 | CC(CN1CCN(c2cc(F)cc3cccnc23)CC1)c1coc2ccccc12 (stereo not drawn) [Compound 29, 8-{4-[2-(1-benzofuran-3-yl)propyl]-1-piperazinyl}-6-fluoro-quinoline] | 112 | 68
6 | Cc1cc(N2CCN(CCc3coc4cc(Cl)ccc34)CC2)c2ncccc2c1 [Compound 8, 8-{4-[2-(6-chloro-1-benzofuran-3-yl)ethyl]-1-piperazinyl}-6-methyl-quinoline] | 36.7 | 403
7 | COc1ccc2c(CCN3CCN(c4cc(Cl)cc5cccnc45)CC3)coc2c1 [Compound 11, 8-{4-[2-(6-methoxy-1-benzofuran-3-yl)ethyl]-1-piperazinyl}-6-chloro-quinoline] | 0.81 | 37
8 | COc1cccc2c(C(C)CN3CCN(c4cc(Cl)cc5cccnc45)CC3)coc12 (stereo not drawn) [Compound 33, 8-{4-[2-(7-methoxy-1-benzofuran-3-yl)propyl]-1-piperazinyl}-6-chloro-quinoline] | 8.19 | 58
9 | Cc1cc(N2CCN(CCc3coc4ccc(Cl)cc34)CC2)c2ncccc2c1 [Compound 14, 8-{4-[2-(5-chloro-1-benzofuran-3-yl)ethyl]-1-piperazinyl}-6-methyl-quinoline] | 13.5 | 45
10 | COc1ccc2occ(CCN3CCN(c4cc(F)cc5cccnc45)CC3)c2c1 [Compound 26, 8-{4-[2-(5-methoxy-1-benzofuran-3-yl)ethyl]-1-piperazinyl}-6-fluoro-quinoline] | 14.4 | 16.5
11 | CC(CN1CCN(c2cccc3cccnc23)CC1)c1coc2ccccc12 (stereo not drawn) [Compound 27, 8-{4-[2-(1-benzofuran-3-yl)propyl]-1-piperazinyl}quinoline] | 19.3 | 32
12 | Cc1cc(N2CCN(CC(C)c3coc4ccccc34)CC2)c2ncccc2c1 (stereo not drawn) [Compound 30, 8-{4-[2-(1-benzofuran-3-yl)propyl]-1-piperazinyl}-6-methyl-quinoline] | 79.1 | 93
13 | Clc1ccc2c(CCN3CCN(c4cccc5cccnc45)CC3)coc2c1 [Compound 5, 8-{4-[2-(6-chloro-1-benzofuran-3-yl)ethyl]-1-piperazinyl}-quinoline] | 0.73 | 31
14 | Fc1cc(N2CCN([C@H]3CC[C@@H](c4csc5ccc(F)cc54)CC3)CC2)c2ncccc2c1 [Compound 47, 6-fluoro-8-{4-[4-cis(5-fluoro-1-benzothien-3-yl)cyclohexyl]piperazin-1-yl}quinoline] | 1.72 | –
15 | COc1ccc2occ([C@H]3CC[C@@H](N4CCN(c5ccc(Cl)c6cccnc56)CC4)CC3)c2c1 [Compound 65, 5-chloro-8-{4-[4-cis(5-methoxy-1-benzofuran-3-yl)cyclohexyl]piperazin-1-yl}quinoline] | 10.1 | 53
16 | COc1cccc2c1occ2[C@H]1CC[C@H](N2CCN(c3ccc(Cl)c4cccnc34)CC2)CC1 [Compound 64, 5-chloro-8-{4-[4-trans(7-methoxy-1-benzofuran-3-yl)cyclohexyl]piperazin-1-yl}quinoline] | 18.7 | 49
17 | COc1cc(N2CCN([C@H]3CC[C@@H](c4csc5ccc(F)cc54)CC3)CC2)c2ncccc2c1 [Compound 49, 6-methoxy-8-{4-[4-cis(5-fluoro-1-benzothien-3-yl)cyclohexyl]piperazin-1-yl}quinoline] | 1.37 | 92
18 | COc1cccc2c(CCN3CCN(c4cccc5cccnc45)CC3)coc12 [Compound 18, 8-{4-[2-(7-methoxy-1-benzofuran-3-yl)ethyl]-1-piperazinyl}-quinoline] | 0.11 | 0.65
19 | COc1cccc2c(CC(C)N3CCN(c4cc(C)cc5cccnc45)CC3)coc12 (stereo not drawn) [Compound 37, 6-methyl-8-{4-[2-(7-methoxy-1-benzofuran-3-yl)-1-methylethyl)piperazin-1-yl]quinoline] | – | 471
20 | COc1cccc2c(CC(C)N3CCN(c4cccc5cccnc45)CC3)coc12 (stereo not drawn) [Compound 35, 8-{4-[2-(7-methoxy-1-benzofuran-3-yl)-1-methylethyl)piperazin-1-yl]quinoline] | 1.22 | –
21 | Fc1cc(N2CCN(CCc3coc4ccccc34)CC2)c2ncccc2c1 [Compound 1, 8-{4-[2-(1-benzofuran-3-yl)ethyl]-1-piperazinyl}-6-fluoroquinoline] | – | 6.5

More lines, now with the values ahead:

Row | Ki [1] [nM] | Ki [2] [nM] | SMILES
22 | 124 | 176 | Clc1cc(N2CCN(CCc3coc4ccccc34)CC2)c2ncccc2c1 [Compound 2, 8-{4-[2-(1-benzofuran-3-yl)ethyl]-1-piperazinyl}-6-chloroquinoline]
23 | 16.1 | 471 | Fc1cc(N2CCN(CCc3coc4cc(Cl)ccc34)CC2)c2ncccc2c1 [Compound 6, 8-{4-[2-(6-chloro-1-benzofuran-3-yl)ethyl]-1-piperazinyl}-6-fluoro-quinoline]
24 | 20 | 28.5 | COc1ccc2occ(CCN3CCN(c4cc(C)cc5cccnc45)CC3)c2c1 [Compound 23, 8-{4-[2-(5-methoxy-1-benzofuran-3-yl)ethyl]-1-piperazinyl}-6-methyl-quinoline]
25 | 15.4 | – | Clc1cc(N2CCN(CCc3coc4cc(Cl)ccc34)CC2)c2ncccc2c1 [Compound 7, 8-{4-[2-(6-chloro-1-benzofuran-3-yl)ethyl]-1-piperazinyl}-6-chloro-quinoline]
26 | 2.92 | 11 | Clc1ccc2occ(CCN3CCN(c4cccc5cccnc45)CC3)c2c1 [Compound 12, 8-{4-[2-(5-chloro-1-benzofuran-3-yl)ethyl]-1-piperazinyl}-quinoline]
27 | 0.14 | – | COc1ccc2occ(CC(C)N3CCN(c4cccc5cccnc45)CC3)c2c1 (stereo not drawn) [Compound 38, 8-{4-[2-(5-methoxy-1-benzofuran-3-yl)-1-methylethyl)piperazin-1-yl]quinoline]
28 | 9.13 | 35 | COc1cccc2c(C(C)CN3CCN(c4cc(C)cc5cccnc45)CC3)coc12 (stereo not drawn) [Compound 34, 8-{4-[2-(7-methoxy-1-benzofuran-3-yl)propyl]-1-piperazinyl}-6-methyl-quinoline]
29 | 25.9 | 10 | COc1cc(N2CCN([C@H]3CC[C@H](c4csc5ccc(F)cc54)CC3)CC2)c2ncccc2c1 [Compound 50, 6-methoxy-8-{4-[4-trans(5-fluoro-1-benzothien-3-yl)cyclohexyl]piperazin-1-yl}quinoline]
30 | 0.37 | 33 | COc1ccc2c(CCN3CCN(c4cccc5cccnc45)CC3)coc2c1 [Compound 9, 8-{4-[2-(6-methoxy-1-benzofuran-3-yl)ethyl]-1-piperazinyl}-quinoline]
31 | 8.05 | 62 | COc1cc(N2CCN(CCc3coc4ccc(F)cc34)CC2)c2ncccc2c1 [Compound 16, 8-{4-[2-(5-fluoro-1-benzofuran-3-yl)ethyl]-1-piperazinyl}-6-methoxy-quinoline]
32 | 0.37 | 17 | Fc1ccc2occ(CCN3CCN(c4cccc5cccnc45)CC3)c2c1 [Compound 15, 8-{4-[2-(5-fluoro-1-benzofuran-3-yl)ethyl]-1-piperazinyl}-quinoline]
33 | 21.1 | 34 | COc1cccc2c1occ2[C@H]1CC[C@H](N2CCN(c3ccc(F)c4cccnc34)CC2)CC1 [Compound 58, 5-fluoro-8-{4-[4-trans(7-methoxy-1-benzofuran-3-yl)cyclohexyl]-1-piperazinyl}quinoline]
34 | 0.14 | 3.79 | COc1cccc2c(CCN3CCN(c4cc(Cl)cc5cccnc45)CC3)coc12 [Compound 20, 8-{4-[2-(7-methoxy-1-benzofuran-3-yl)ethyl]-1-piperazinyl}-6-chloro-quinoline]
35 | 1.59 | 16.5 | Fc1cc(N2CCN(CCc3coc4ccc(F)cc34)CC2)c2ncccc2c1 [Compound 17, 8-{4-[2-(5-fluoro-1-benzofuran-3-yl)ethyl]-1-piperazinyl}-6-fluoro-quinoline]
36 | 110 | 73 | CC(CN1CCN(c2cc(Cl)cc3cccnc23)CC1)c1coc2ccccc12 (stereo not drawn) [Compound 28, 8-{4-[2-(1-benzofuran-3-yl)propyl]-1-piperazinyl}-6-chloro-quinoline]
